Measurements as given in US10870647B2, “Imidazopyridine derivative, method for preparing same, and pharmaceutical composition containing same as active ingredient for preventing or treating cancer” (DAEGU-GYEONGBUK MEDICAL INNOVATION FOUNDATION, priority 2016, dated 2020).
Like-named read-outs stand apart in the source and are kept apart here.

What was measured:
Assay in all cases: Kinase selectivity, scanMAX Kinase assay panel (DiscoverX), % control at 1 uM
Type in all cases: binding
[1] = molecular target: T1, scanMAX Kinase assay panel (Homo sapiens, UniProt P45985); details: MEK4; 1 uM; read-out: Percent Control (%)
T1 construct: purchased DiscoverX
T1 sequence (P45985 1-399): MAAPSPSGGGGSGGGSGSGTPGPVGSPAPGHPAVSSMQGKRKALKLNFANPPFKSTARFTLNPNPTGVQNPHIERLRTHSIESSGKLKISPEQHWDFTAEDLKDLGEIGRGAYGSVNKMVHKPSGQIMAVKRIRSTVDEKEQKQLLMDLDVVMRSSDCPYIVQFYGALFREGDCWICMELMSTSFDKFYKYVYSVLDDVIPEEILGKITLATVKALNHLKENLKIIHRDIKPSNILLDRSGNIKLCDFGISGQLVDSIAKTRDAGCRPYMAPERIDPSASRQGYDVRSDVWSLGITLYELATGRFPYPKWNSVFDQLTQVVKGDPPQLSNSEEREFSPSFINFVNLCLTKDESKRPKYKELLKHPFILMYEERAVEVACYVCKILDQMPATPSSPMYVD
How it was run: (§1)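 1 uM cpd (DMSO) per kinase; % ctrl = [cpd − pos ctrl]/[neg ctrl − pos ctrl] × 100; hit if <35.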

[2] = molecular target: T2, scanMAX Kinase assay panel (Homo sapiens, UniProt P04049); details: RAF1; 1 uM; read-out: Percent Control (%)
T2 construct: purchased DiscoverX
How it was run: as §1

[3] = molecular target: T3, scanMAX Kinase assay panel (Homo sapiens, UniProt Q14164); details: IKK-epsilon; 1 uM; read-out: Percent Control (%)
T3 construct: purchased DiscoverX
T3 sequence (Q14164 1-716): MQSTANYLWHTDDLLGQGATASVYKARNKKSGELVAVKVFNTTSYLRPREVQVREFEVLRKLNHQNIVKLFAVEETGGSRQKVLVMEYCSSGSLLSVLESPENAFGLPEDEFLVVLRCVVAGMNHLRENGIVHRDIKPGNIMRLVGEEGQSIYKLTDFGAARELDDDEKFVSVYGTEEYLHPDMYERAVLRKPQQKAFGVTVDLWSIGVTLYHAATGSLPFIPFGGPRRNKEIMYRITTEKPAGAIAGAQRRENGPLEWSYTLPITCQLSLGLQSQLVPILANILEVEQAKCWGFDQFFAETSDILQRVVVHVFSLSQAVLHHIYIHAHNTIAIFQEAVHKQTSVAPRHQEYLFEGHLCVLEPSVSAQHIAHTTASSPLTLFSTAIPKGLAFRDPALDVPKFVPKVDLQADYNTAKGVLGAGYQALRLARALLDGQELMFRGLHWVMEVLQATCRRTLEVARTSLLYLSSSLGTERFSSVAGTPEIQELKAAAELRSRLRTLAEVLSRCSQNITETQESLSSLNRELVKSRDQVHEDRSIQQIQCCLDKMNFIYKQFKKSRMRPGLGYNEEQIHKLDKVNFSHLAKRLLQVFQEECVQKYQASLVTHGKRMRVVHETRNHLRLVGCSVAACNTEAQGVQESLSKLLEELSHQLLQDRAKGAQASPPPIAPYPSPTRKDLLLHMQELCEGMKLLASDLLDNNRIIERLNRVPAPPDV
How it was run: as §1

[4] = molecular target: T4, scanMAX Kinase assay panel (Homo sapiens, UniProt O75582); details: 1 uM, read-out: Percent Control (%)
T4 construct: purchased DiscoverX
How it was run: as §1

[5] = molecular target: T5, scanMAX Kinase assay panel (Homo sapiens, UniProt P29376); details: LTK; 1 uM; read-out: Percent Control (%)
T5 construct: purchased DiscoverX
How it was run: as §1

[6] = molecular target: T6, scanMAX Kinase assay panel (Homo sapiens, UniProt Q92630); details: DYRK2; 1 uM; read-out: Percent Control (%)
T6 construct: purchased DiscoverX
T6 sequence (Q92630 1-601): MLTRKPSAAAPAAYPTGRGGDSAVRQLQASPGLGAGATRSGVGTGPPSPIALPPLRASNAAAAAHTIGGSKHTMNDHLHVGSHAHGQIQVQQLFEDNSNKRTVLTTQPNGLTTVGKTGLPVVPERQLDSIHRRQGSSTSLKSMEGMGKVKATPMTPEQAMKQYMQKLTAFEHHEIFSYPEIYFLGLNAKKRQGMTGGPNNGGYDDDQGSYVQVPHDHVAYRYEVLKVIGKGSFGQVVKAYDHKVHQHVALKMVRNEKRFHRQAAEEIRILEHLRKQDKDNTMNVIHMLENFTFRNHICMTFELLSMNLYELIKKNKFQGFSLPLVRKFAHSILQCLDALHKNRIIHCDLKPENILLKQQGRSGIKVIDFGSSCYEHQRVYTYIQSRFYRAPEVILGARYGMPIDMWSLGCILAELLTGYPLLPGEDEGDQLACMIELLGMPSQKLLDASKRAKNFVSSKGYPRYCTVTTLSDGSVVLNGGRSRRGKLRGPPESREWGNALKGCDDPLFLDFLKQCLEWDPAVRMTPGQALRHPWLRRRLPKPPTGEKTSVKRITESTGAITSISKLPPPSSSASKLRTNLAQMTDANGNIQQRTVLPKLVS
How it was run: as §1

T5 sequence (P29376 17-864): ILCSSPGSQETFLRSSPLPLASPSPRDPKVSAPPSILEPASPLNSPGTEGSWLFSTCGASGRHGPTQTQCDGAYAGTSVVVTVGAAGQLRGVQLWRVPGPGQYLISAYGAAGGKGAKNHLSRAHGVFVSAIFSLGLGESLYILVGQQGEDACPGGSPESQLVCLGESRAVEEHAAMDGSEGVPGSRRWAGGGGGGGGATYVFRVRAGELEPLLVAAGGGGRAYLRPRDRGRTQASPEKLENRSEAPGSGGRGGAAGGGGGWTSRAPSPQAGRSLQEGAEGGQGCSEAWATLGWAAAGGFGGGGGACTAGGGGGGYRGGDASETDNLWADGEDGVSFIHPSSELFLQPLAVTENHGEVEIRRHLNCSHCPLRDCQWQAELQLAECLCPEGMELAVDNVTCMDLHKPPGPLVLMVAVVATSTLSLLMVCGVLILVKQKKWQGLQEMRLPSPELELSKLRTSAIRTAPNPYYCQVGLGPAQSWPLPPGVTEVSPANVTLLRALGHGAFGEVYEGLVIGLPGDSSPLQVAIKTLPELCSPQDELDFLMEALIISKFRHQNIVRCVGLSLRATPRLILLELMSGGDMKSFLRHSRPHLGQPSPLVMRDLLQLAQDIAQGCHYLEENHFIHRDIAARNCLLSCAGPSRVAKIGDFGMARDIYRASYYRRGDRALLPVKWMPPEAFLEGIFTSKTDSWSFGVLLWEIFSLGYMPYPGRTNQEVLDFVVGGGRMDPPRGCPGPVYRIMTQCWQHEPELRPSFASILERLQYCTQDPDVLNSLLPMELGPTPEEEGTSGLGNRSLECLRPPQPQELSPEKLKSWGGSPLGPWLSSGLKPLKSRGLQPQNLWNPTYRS
T2 sequence (P04049 whole entry): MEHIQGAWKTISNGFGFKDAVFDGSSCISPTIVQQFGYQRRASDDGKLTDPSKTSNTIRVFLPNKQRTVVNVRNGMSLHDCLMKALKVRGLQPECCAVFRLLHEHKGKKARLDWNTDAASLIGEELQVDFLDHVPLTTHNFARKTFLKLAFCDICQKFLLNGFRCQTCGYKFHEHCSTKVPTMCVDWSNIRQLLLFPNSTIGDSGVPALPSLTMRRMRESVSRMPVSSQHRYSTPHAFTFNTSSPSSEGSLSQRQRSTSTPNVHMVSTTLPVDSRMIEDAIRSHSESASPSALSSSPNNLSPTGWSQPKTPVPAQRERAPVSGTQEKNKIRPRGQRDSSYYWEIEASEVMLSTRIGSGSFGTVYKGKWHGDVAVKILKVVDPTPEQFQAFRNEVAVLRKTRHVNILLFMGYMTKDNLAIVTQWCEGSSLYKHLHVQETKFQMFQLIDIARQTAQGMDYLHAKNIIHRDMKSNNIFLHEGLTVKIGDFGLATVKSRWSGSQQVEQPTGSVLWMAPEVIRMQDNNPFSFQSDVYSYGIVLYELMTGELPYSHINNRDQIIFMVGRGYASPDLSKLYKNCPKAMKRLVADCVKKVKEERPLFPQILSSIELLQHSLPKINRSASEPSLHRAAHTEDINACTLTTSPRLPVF
T4 sequence (O75582 whole entry): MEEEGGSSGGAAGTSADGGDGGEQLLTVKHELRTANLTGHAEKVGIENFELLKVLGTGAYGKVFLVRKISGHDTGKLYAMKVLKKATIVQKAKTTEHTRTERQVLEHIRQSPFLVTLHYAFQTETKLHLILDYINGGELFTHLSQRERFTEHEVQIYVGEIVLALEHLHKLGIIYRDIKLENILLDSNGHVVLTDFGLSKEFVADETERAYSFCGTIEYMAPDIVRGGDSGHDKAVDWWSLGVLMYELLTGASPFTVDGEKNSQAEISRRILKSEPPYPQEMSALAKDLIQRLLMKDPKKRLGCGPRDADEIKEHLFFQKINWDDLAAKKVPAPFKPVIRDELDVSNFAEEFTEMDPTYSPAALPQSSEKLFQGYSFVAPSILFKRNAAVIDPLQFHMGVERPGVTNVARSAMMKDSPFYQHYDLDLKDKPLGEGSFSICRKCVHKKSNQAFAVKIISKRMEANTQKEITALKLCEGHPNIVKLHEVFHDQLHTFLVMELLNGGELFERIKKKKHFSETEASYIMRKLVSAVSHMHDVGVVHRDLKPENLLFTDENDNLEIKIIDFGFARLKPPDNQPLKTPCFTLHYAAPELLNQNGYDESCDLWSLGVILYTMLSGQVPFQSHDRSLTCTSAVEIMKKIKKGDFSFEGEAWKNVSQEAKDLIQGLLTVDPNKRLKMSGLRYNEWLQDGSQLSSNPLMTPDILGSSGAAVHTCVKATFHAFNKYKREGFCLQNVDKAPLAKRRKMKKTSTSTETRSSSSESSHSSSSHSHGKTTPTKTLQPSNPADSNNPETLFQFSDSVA

## Cc1ccc(C(=O)Nc2ccc(CN3CCN(C)CC3)c(C(F)(F)F)c2)cc1C#Cc1cnc2c(Nc3cnn(C)c3)cccn12 [Example 1, 4-methyl-3-((8-((1-methyl-1H-pyrazol-4-yl)amino)imidazo[1,2-a]pyridin-3-yl)ethynyl)-N-(4-((4-methylpiperazin-1-yl)methyl)-3-(trifluoromethyl)phenyl)benzamide]
[1]
  remaining binding at 1 µM: 98%
[2]
  remaining binding at 1 µM: 11%
[3]
  remaining binding at 1 µM: 66%
[4]; RPS6KA5 (Kin.Dom.1-N-terminal)
  remaining binding at 1 µM: 38%
[4]; RPS6KA5 (Kin.Dom.2-C-terminal)
  remaining binding at 1 µM: 69%
[5]
  remaining binding at 1 µM: 9%
[6]
  remaining binding at 1 µM: 75%

## Cc1cn(-c2cc(NC(=O)c3ccc(C)c(C#Cc4cnc5c(Nc6cnn(C)c6)cccn45)c3)cc(C(F)(F)F)c2)cn1 [Example 12, 4-methyl-N-(3-(4-methyl-1H-imidazol-1-yl)-5-(trifluoromethyl)phenyl)-3-((8-((1-methyl-1H-pyrazol-4-yl)amino)imidazo[1,2-a]pyridin-3-yl)ethynyl)benzamide]
[1]
  remaining binding at 1 µM: 100%
[2]
  remaining binding at 1 µM: 42%
[3]
  remaining binding at 1 µM: 100%
[4]; RPS6KA5 (Kin.Dom.1-N-terminal)
  remaining binding at 1 µM: 99%
[4]; RPS6KA5 (Kin.Dom.2-C-terminal)
  remaining binding at 1 µM: 94%
[5]
  remaining binding at 1 µM: 12%
[6]
  remaining binding at 1 µM: 91%

## Cc1ccc(NC(=O)C2(C(=O)Nc3ccc(F)cc3)CC2)cc1C#Cc1cnc2c(Nc3cnn(C(C)C)c3)cccn12 [Example 78]
[1]
  remaining binding at 1 µM: 97%
[2]
  remaining binding at 1 µM: 100%
[3]
  remaining binding at 1 µM: 100%
[4]; RPS6KA5 (Kin.Dom.1-N-terminal)
  remaining binding at 1 µM: 100%
[4]; RPS6KA5 (Kin.Dom.2-C-terminal)
  remaining binding at 1 µM: 100%
[5]
  remaining binding at 1 µM: 94%
[6]
  remaining binding at 1 µM: 94%
